Experimental data: patent US20110040086A1, “Novel Beta-Lactam Antibiotics, Methods for Their Production, and Their Use” (DRITTE PATENTPORTFOLIO BETEILIGUNGSGESELLSCHAFT MB, priority 2007, published 2011)

Key:
[1] = test system: S. aureus 36881; assay: agar diffusion test (Test System II, multi-resistant germs); type: cell-based, Staphylococcus aureus; set-up: key: r = resistant (no detectable zone of inhibition)
How it was run: (§1)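 A McFarland 0.5 bacterial suspension in physiological saline is spread vertically, horizontally and transversely over Müller-Hinton agar II. Three sensi-discs bearing 10, 50 and 100 μg of test compound go onto each plate, which then incubates at 37 °C for 18-20 h before zone diameters are recorded.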

[2] = test system: S. aureus 33490; assay: as above; type: cell-based, Staphylococcus aureus; set-up: key: r = resistant (no detectable zone of inhibition)
How it was run: as §1

[3] = test system: S. aureus 39105; assay: as above; type: cell-based, Staphylococcus aureus; set-up: key: r = resistant (no detectable zone of inhibition)
How it was run: as §1

[4] = test system: S. aureus 34289; assay: as above; type: cell-based, Staphylococcus aureus; set-up: key: r = resistant (no detectable zone of inhibition)
How it was run: as §1

[5] = test system: S. aureus North Germany strain; assay: as above; type: cell-based, Staphylococcus aureus; set-up: key: r = resistant (no detectable zone of inhibition)
How it was run: as §1

[6] = test system: S. aureus 520; assay: as above; type: cell-based, Staphylococcus aureus; set-up: key: r = resistant (no detectable zone of inhibition)
How it was run: as §1

[7] = test system: S. aureus 526; assay: as above; type: cell-based, Staphylococcus aureus; set-up: key: r = resistant (no detectable zone of inhibition)
How it was run: as §1

[8] = test system: Staphylococcus aureus ATCC 6538; assay: mouse infected with Staphylococcus aureus infection model (survival); type: in vivo, BALB/c mice; conditions: 2 × 1.0 mg (50 mg/kg) i.p.
How it was run: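 Survival model: S. aureus grown to extinction 0.6 at 550 nm and injected i.p. (10 μl/g body weight) into cyclophosphamide-pretreated BALB/c mice (250 then 100 mg/kg i.p.), ≥3 animals per arm. Test antibiotic dosed i.p. at 30 min and again later at the same concentration, vehicle PBS/3% DMSO.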

[9] = test system: B. subtilis AWD 166; assay: agar diffusion test (antimicrobial effect); type: cell-based, Bacillus subtilis
How it was run: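 Inhibition zone diameters (mm) read after 20 h incubation at 37 °C. Discs carried 10 μg, 50 μg or 100 μg of test substance, dissolved in methanol or distilled water, on agar inoculated with B. subtilis AWD 166 for dense but separate colonies.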

[10] = test system: S. epidermidis 125; assay: agar diffusion test (Test System II, multi-resistant germs); type: cell-based, Staphylococcus epidermidis
How it was run: as §1

[11] = test system: Staphylococcus aureus 315; assay: as above; type: cell-based; set-up: key: r = resistant (no detectable zone of inhibition)
How it was run: as §1

[12] = test system: Enterococcus faecalis 769; assay: as above; type: cell-based; set-up: key: r = resistant (no detectable zone of inhibition)
How it was run: as §1

[13] = test system: Bacillus megaterium SBUG 1152; assay: agar diffusion test (Test System 1, antimicrobial effect); type: cell-based
How it was run: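 Paper discs loaded with 10 μg, 50 μg or 100 μg of test substance (methanol or water solution) placed on nutrient agar seeded with 10^6 cells of a 17-h B. megaterium culture. After 20 h at 37° C., zone of inhibition measured as diameter in mm.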

[14] = test system: Escherichia coli SBUG 1135; assay: as above; type: cell-based; set-up: key: r = resistant (no detectable zone of inhibition)
How it was run: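 Disc diffusion: compound at 10 μg, 50 μg, 100 μg on sensi-discs, three per plate of nutrient agar seeded with ~10^6 E. coli SBUG 1135 (overnight culture, 17 h, 37° C, diluted 1:100). After 20 h incubation at 37° C, zone diameter recorded in mm.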

Row | Compound | Diameter of zone of inhibition ([1]; Quantity n 0.019) | Diameter of zone of inhibition ([1]; Quantity n 0.19) | Diameter of zone of inhibition ([2]; Quantity n [μmol] 0.019) | Diameter of zone of inhibition ([2]; Quantity n [μmol] 0.19) | Diameter of zone of inhibition ([3]; Quantity n 0.019) | Diameter of zone of inhibition ([3]; Quantity n 0.19) | Diameter of zone of inhibition ([4]; Quantity n [mol] 0.019) | Diameter of zone of inhibition ([4]; Quantity n [mol] 0.19) | Diameter of zone of inhibition ([5]; Quantity n 0.019) | Diameter of zone of inhibition ([5]; Quantity n 0.19) | Diameter of zone of inhibition ([6]; Quantity n [mol] 0.019) | Diameter of zone of inhibition ([6]; Quantity n [mol] 0.19) | Diameter of zone of inhibition ([7]; Quantity n 0.019) | Diameter of zone of inhibition ([7]; Quantity n 0.19) | Survival/tested mice n/n [8] | Diameter of zone of inhibition ([9]; Quantity n 0.019) | Diameter of zone of inhibition ([9]; Quantity n 0.19) | Diameter of zone of inhibition ([10]; Quantity n 0.019) | Diameter of zone of inhibition ([10]; Quantity n 0.19) | Diameter of zone of inhibition ([11]; Quantity n 0.019) | other results
1 | 7-[2-(2-carbamoyl-3,6-dioxocyclohexa-1,4-dienylamino)-2-(4-hydroxyphenyl)-acetylamino]-desacetoxycephalosporanic acid [1b] | r | 18 mm | r | 20 mm | r | 18 mm | r | 12 mm | r | 12 mm | r | r | r | 12 mm | 6/6 | 22 mm | 32 mm | 14 mm | 26 mm | r | Diameter of zone of inhibition ([1]; Quantity n 0.1): 12 mm; Diameter of zone of inhibition ([2]; Quantity n [μmol] 0.1): 14 mm; Diameter of zone of inhibition ([3]; Quantity n 0.1): 12 mm; Diameter of zone of inhibition ([4]; Quantity n [mol] 0.1): r; Diameter of zone of inhibition ([5]; Quantity n 0.1): 8 mm; Diameter of zone of inhibition ([6]; Quantity n [mol] 0.1): r; Diameter of zone of inhibition ([7]; Quantity n 0.1): r; Diameter of zone of inhibition ([9]; Quantity n 0.1): 30 mm; Diameter of zone of inhibition ([10]; Quantity n 0.1): 22 mm; Diameter of zone of inhibition ([11]; Quantity n 0.1): r; Diameter of zone of inhibition ([11]; Quantity n 0.19): 8 mm; Diameter of zone of inhibition ([12]; Quantity n 0.019): r; Diameter of zone of inhibition ([12]; Quantity n 0.1): r; Diameter of zone of inhibition ([12]; Quantity n 0.19): r; Diameter of zone of inhibition ([13]; Quantity n 0.019): 22 mm; Diameter of zone of inhibition ([13]; Quantity n 0.1): 30 mm; Diameter of zone of inhibition ([13]; Quantity n 0.19): 32 mm; Diameter of zone of inhibition ([14]; Quantity n 0.019): r; Diameter of zone of inhibition ([14]; Quantity n 0.1): 14 mm; Diameter of zone of inhibition ([14]; Quantity n 0.19): 18 mm
2 | CCOC(=O)C1=C(NC(C(=O)NC2C(=O)N3C(C(=O)O)=C(Cl)CSC23)c2ccccc2)C(=O)C=CC1=O (centres unmarked) [1l] | r | 18 mm | 14 mm | 24 mm | r | 22 mm | r | r | r | 16 mm | r | 10 mm | r | r | 3/3 | 30 mm | 38 mm | 18 mm | 28 mm | r | Diameter of zone of inhibition ([1]; Quantity n 0.09): 8 mm; Diameter of zone of inhibition ([2]; Quantity n [μmol] 0.09): 20 mm; Diameter of zone of inhibition ([3]; Quantity n 0.09): 18 mm; Diameter of zone of inhibition ([4]; Quantity n [mol] 0.09): r; Diameter of zone of inhibition ([5]; Quantity n 0.09): 10 mm; Diameter of zone of inhibition ([6]; Quantity n [mol] 0.09): r; Diameter of zone of inhibition ([7]; Quantity n 0.09): r; Diameter of zone of inhibition ([9]; Quantity n 0.09): 34 mm; Diameter of zone of inhibition ([10]; Quantity n 0.09): 26 mm; Diameter of zone of inhibition ([11]; Quantity n 0.09): 10 mm; Diameter of zone of inhibition ([11]; Quantity n 0.19): 14 mm; Diameter of zone of inhibition ([12]; Quantity n 0.019): r; Diameter of zone of inhibition ([12]; Quantity n 0.09): r; Diameter of zone of inhibition ([12]; Quantity n 0.19): r; Diameter of zone of inhibition ([13]; Quantity n 0.019): 30 mm; Diameter of zone of inhibition ([13]; Quantity n 0.09): 34 mm; Diameter of zone of inhibition ([13]; Quantity n 0.19): 38 mm; Diameter of zone of inhibition ([14]; Quantity n 0.019): 18 mm; Diameter of zone of inhibition ([14]; Quantity n 0.09): 24 mm; Diameter of zone of inhibition ([14]; Quantity n 0.19): 28 mm
